These results are taken from patent US20200079765A1, “SUBSTITUTED HETEROARYL PYRROLONES AND SALTS THEREOF AND USE THEREOF AS HERBICIDAL ACTIVE SUBSTANCES” (Bayer CropScience Aktiengesellschaft, priority 2016, published 2020).

Assay [1] deals with T1, photosystem II (PS II) (Spinacia oleracea, UniProt P69560).
T1 construct: the chloroplasts were osmotically ruptured and the thylakoid membranes were then obtained by centrifugation; from tissue; host or cells: thylakoid membranes from fresh spinach leaves
Kind of assay: Measurement of the PS II activity in thylakoid membranes (DCPIP reduction, Experimental Part 3, Table E1). The format is biochemical. Conditions: spinach thylakoid membranes. The method, then: Cooled fresh spinach leaves were comminuted and homogenized in 50 mM phosphate buffer, pH 6.8. 10 mM KCl, 0.34 M sucrose (sucrose buffer) (blender, 1 g of plant material/ml). The homogenate was subsequently filtered through 4 layers of Miracloth and the chloroplasts were isolated by centrifugation, i.e. 10 min of centrifugation at 4400×g (4° C.). The sediment was suspended in 25 ml of sucrose buffer and re-centrifuged for 10 min at 4400×g (4° C.). The sediment was then suspended in 40 ml of 50 mM phosphate buffer, pH 6.8, 10 mM KCl, without sucrose. In this step, the chloroplasts were osmotically ruptured and the thylakoid membranes were then obtained by centrifugation (10 min, 4400×g, 4° C.). The membrane sediment was finally suspended in about 20 ml of 50 mM phosphate buffer, pH 6.8, 10 mM KCl. Following protein determination and activity determination, the membrane suspension was divided into aliquots and frozen in liquid nitrogen. The aliquots were stored at −80° C. Under these conditions, the photosystem II preparation was storage stable for at least three months. The activity determination of photosystem II (PS II) was then carried out using the following test principle: The electron transfer from PS II to an artificial electron acceptor, 2,6-dichlorophenolindophenol (DCPIP), was measured with exposure to light. The concentration of the blue oxidized form of DCPIP was determined spectrophotometrically at wavelength λ=595 nm. […] The activity determination was carried out in microtiter plates (96 cavities) in a reaction volume of 200 μl. Here, 155 μl of dilute membrane suspension were initially charged in 50 mM of phosphate buffer, pH 6.8, 10 mM KCl. Depending on the activity of the PS II preparation, the dilution was adjusted such that the measurement of the decrease in absorption (λ=595 nm) was linear for at least 10 min. In each case 5 μl solution of the test compounds of a concentration of 100 μM in DMSO were added to the enzyme suspension; controls contained 5 μl DMSO; the final concentration of DMSO in the reaction batch was thus 2.5% (v/v); this concentration had no adverse effect on the enzymatic activity. On each microtiter plate, a known PS II inhibitor, for example metribuzin, was used as standard, which allowed the quality of the PS II test to be assessed. The reaction was started by addition of 40 μl DCPIP solution (600 μM in distilled water); the final concentration of DCPIP was 120 μM. Measurement of absorption was carried out over a period of 10 min at 22° C. and with exposure to light. Using metribuzin as comparative substance, the results for the efficacy of the compounds of the general formula (I) at 100 μM are stated in the table below using the following classification: ++++ (inhibition≥90%), +++ (90%>inhibition≥70%), ++ (70%>inhibition≥50%), + (50%>inhibition≥30%).
Effects of selected compounds of the general formula (I) according to the following table E1: […]

The subject of assay [2] is Amaranthus retroflexus. Kind of assay: Pre-emergence herbicidal action (Experimental Part 1, B). The class given is in vivo. To be noted: application rate 1280 g/ha, scored visually after about 3 weeks. From the text: Seeds of monocotyledonous and dicotyledonous weed plants and crop plants were placed in plastic or organic planting pots and covered with soil. The compounds of the invention, formulated in the form of wettable powders (WP) or as emulsion concentrates (EC), were then applied onto the surface of the covering soil as aqueous suspension or emulsion with addition of 0.5% additive at a water application rate of 600 l/ha (converted). After the treatment, the pots were placed in a greenhouse and kept under good growth conditions for the test plants. After about 3 weeks, the effect of the preparations was scored visually in comparison with untreated controls as percentages. For example, 100% activity=the plants have died, 0% activity=like control plants. Tables B1 to B14 below show the effects of selected compounds of the general formula (I) according to Tables I.1 to I.116 on various harmful plants and an application rate corresponding to 1280 g/ha or 320 g/ha, which were obtained by the experimental procedure mentioned above.

Assay [3] concerns Abutilon theophrasti. Briefly: Herbicidal pre-emergence action (Experimental Part 2, D). The format is in vivo. Conditions: pre-emergence (Part 2), application rate 1280 g/ha, scored visually after about 3 weeks. From the text:
(§1) Seeds of mono- and dicotyledonous weed plants were placed in plastic pots in sandy loam soil (doubly sown with in each case one species of mono- or dicotyledonous weed plants per pot) and covered with soil. The compounds of the invention, formulated in the form of wettable powders (WP) or as emulsion concentrates (EC), were then applied onto the surface of the covering soil as aqueous suspension or emulsion with addition of 0.5% additive at a water application rate of 600 liters per hectare (converted). After the treatment, the pots are placed in a greenhouse and kept under good growth conditions for the trial plants. After about 3 weeks, the effect of the preparations was scored visually in comparison with untreated controls as percentages. For example, 100% activity=the plants have died, 0% activity=like control plants. Tables D1 to D8 below show the effects of selected compounds of the general formula (I) according to Tables I.1 to I.116 on various harmful plants and an application rate corresponding to 1280 g/ha or 320 g/ha, which were obtained by the experimental procedure mentioned above.

Assay [4] has as its system Matricaria inodora. The description is as above. The class given is in vivo. To be noted: pre-emergence (Part 2), scored visually after about 3 weeks.
Text: as §1

For assay [5], the system named is Amaranthus retroflexus. The assay is described as above. To be noted: pre-emergence (Part 2), scored visually after about 3 weeks. The format is in vivo.
Text: as §1

Assay [6] deals with Poa annua. The description is as above. The class given is in vivo. To be noted: pre-emergence (Part 2), scored visually after about 3 weeks.
Text: as §1

Assay [7] concerns Stellaria media. Described as above. To be noted: pre-emergence (Part 2), scored visually after about 3 weeks. The format is in vivo.
Text: as §1

In assay [8] the test system is Setaria viridis. The description is as above. The format is in vivo. To be noted: pre-emergence (Part 2), application rate 1280 g/ha, scored visually after about 3 weeks.
Text: as §1

The subject of assay [9] is Abutilon theophrasti. Kind of assay: Herbicidal post-emergence action (Experimental Part 2, C). To be noted: post-emergence (Part 2), rated visually after about 3 weeks. The format is in vivo. The method, then:
(§2) Seeds of mono- and dicotyledonous weed plants were placed in plastic pots in sandy loam soil (doubly sown with in each case one species of mono- or dicotyledonous weed plants per pot), covered with soil and cultivated in a greenhouse under controlled growth conditions. 2 to 3 weeks after sowing, the test plants were treated at the one-leaf stage. The compounds of the invention, formulated in the form of wettable powders (WP) or as emulsion concentrates (EC), were applied onto the green parts of the plants as aqueous suspension or emulsion with addition of 0.5% additive at a water application rate of 600 liters per hectare (converted). After the test plants had been kept in the greenhouse under optimum growth conditions for about 3 weeks, the activity of the preparations was rated visually in comparison to untreated controls. For example, 100% activity=the plants have died, 0% activity=like control plants. Tables C1 to C8 below show the effects of selected compounds of the general formula (I) according to Tables I.1 to I.116 on various harmful plants and an application rate corresponding to 1280 g/ha or 320 g/ha, which were obtained by the experimental procedure mentioned above.

In assay [10] the test system is Matricaria inodora. The assay is described as above. The format is in vivo. To be noted: post-emergence (Part 2), application rate 1280 g/ha, rated visually after about 3 weeks. The method, then:
as §2

Assay [11] relates to Poa annua. The assay is described as above. The class given is in vivo. Conditions: post-emergence (Part 2), application rate 1280 g/ha, rated visually after about 3 weeks. The method, then: as §2
Assay [12] concerns Stellaria media. The assay is described as above. The format is in vivo. To be noted: post-emergence (Part 2), application rate 1280 g/ha, rated visually after about 3 weeks. The method, then: as §2
The subject of assay [13] is Amaranthus retroflexus. The assay is described as above. The class given is in vivo. To be noted: post-emergence (Part 2), application rate 320 g/ha, rated visually after about 3 weeks. On the procedure: as §2
Assay [14] has as its system Setaria viridis. The assay is described as above. The format is in vivo. To be noted: post-emergence (Part 2), application rate 1280 g/ha, rated visually after about 3 weeks. The method, then:
as §2

Assay [15] concerns Lolium rigidum. Kind of assay: Herbicidal pre-emergence action (Experimental Part 2, D). The class given is in vivo. Conditions: pre-emergence (Part 2), application rate 1280 g/ha, scored visually after about 3 weeks.
Text: as §1

For `CC1=CC(=O)N(c2cc(-c3ccccc3)ns2)C1O` (stereo not shown) [I.1-86], the “Effect (inhibition of PS II activity)” value in assay [1] is recorded as “++++ (inhibition≥90%)”.
Turning to `CC(=O)OC1C(C)=CC(=O)N1c1cc(C(C)(C)C)no1` (stereo not shown) [I.3-290], the “Amaranthus retroflexus, herbicidal activity” value (“Amaranthus retroflexus” for short) in assay [2] and in [5] (application rate 1280 g/ha) was 90% in each case. Also, the “Abutilon theophrasti, herbicidal activity” value (“Abutilon theophrasti” for short) in assay [3] and in assay [9] (application rate 1280 g/ha) was 100% in each case. The entries for the “Matricaria inodora, herbicidal activity” value in assay [4] (application rate 1280 g/ha) and in [10] were 100% and 90%, respectively. The “Poa Annua, herbicidal activity” value in assay [6] (application rate 1280 g/ha) was found to be 90%; in assay [11] it was 100%. Moreover, in assay [7] (application rate 1280 g/ha), the “Stellaria media, herbicidal activity” value worked out at 100%. Further, the “Setaria viridis, herbicidal activity” value in assay [8] worked out at 90%.
Regarding `CC1=CC(=O)N(c2cc(C(C)(C)C)no2)C1O` (stereo not shown) [I.1-290, 5-Hydroxy-4-methyl-1-(3-tert-butyl-1,2-isoxazol-5-yl)-1,5-dihydro-2H-pyrrol-2-one], in [1], the “Effect (inhibition of PS II activity)” value is reported as “++++ (inhibition≥90%)”. The “Abutilon theophrasti” value in assay [3] is 90%; in [9] (application rate 320 g/ha), 100%. The “Matricaria inodora, herbicidal activity” value in [4] (application rate 320 g/ha) and in assay [10] was 100% throughout. In addition, the “Amaranthus retroflexus” value in [5] (application rate 1280 g/ha) is listed as 100%. Further, in assay [6] (application rate 320 g/ha), the “Poa Annua, herbicidal activity” value was determined as 90%. Also, the “Stellaria media, herbicidal activity” value in assay [7] (application rate 320 g/ha) and in assay [12] was 100% each time. For the same compound, the “Setaria viridis, herbicidal activity” value in assay [8] is on record as 90%.
With `CC1=CC(=O)N(c2cc(CC(C)C)no2)C1O` (stereo not shown) [I.1-697], the “Effect (inhibition of PS II activity)” value in assay [1] is “++++ (inhibition≥90%)”.
With `CC1=CC(O)N(c2cc(-c3ccccc3)ns2)C1=O` (stereo not shown) [I.2-86], the “Effect (inhibition of PS II activity)” value in [1] is “++++ (inhibition≥90%)”.
Consider `CC1=CC(=O)N(c2cscn2)C1O` (stereo not shown) [I.1-91], for which the “Abutilon theophrasti” value in assay [3] and in assay [9] (application rate 1280 g/ha) was 100% each time. For the same compound, the figures for the “Matricaria inodora, herbicidal activity” value in assay [4] (application rate 1280 g/ha) and in assay [10] were 90% and 100%, respectively. For the same compound, the “Amaranthus retroflexus” value in assay [5] (application rate 320 g/ha) and in assay [13] was 100% throughout. Besides, the “Stellaria media, herbicidal activity” value in [12] came out at 100%. Besides, the “Setaria viridis, herbicidal activity” value in assay [14] is recorded as 100%.
Turning to `CCC(=O)OC1C(C)=CC(=O)N1c1cc(C(C)(C)C)no1` (stereo not shown) [I.5-290], the “Abutilon theophrasti” value in assay [3] and in assay [9] (application rate 1280 g/ha) was 100% in each case. Besides, the “Matricaria inodora, herbicidal activity” value in [4] (application rate 320 g/ha) and in assay [10] was 100% in each case. In [15], the “Lolium rigidum, herbicidal activity” value is on record as 90%. Besides, the “Poa Annua, herbicidal activity” value in [6] (application rate 320 g/ha) is 90%. Moreover, the “Stellaria media, herbicidal activity” value in [7] (application rate 320 g/ha) and in [12] was 100% throughout. In addition, the “Setaria viridis, herbicidal activity” value in assay [8] came out at 90%.
